The record followed here is US20090004683A1, “Indicator Agent for Noninflammatory Stress Response and Use Thereof” (priority 2004, published 2009).

Experiment [1] relates to IL-18. As to the kind of experiment: Plasma IL-18 level in restraint stress mice (ELISA). The conditions noted are these: given i.p. during restraint (Ac-YVAD-CHO 200 μM/50 μl, Z-FA-fmk 100 μM/50 μl, SB-203580 100 μg, SOD-1 20 U, DPI 30 μg). The experiment is classed as in vivo, mouse. As to the method: (§1) For restraint stress, each mouse was kept in a restrainer (a round plastic tube 27 mm in diameter) for 1, 3 or 6 hours, and IL-18 levels were measured. Regarding the analysis of IL-6, each mouse was restrained as described above, and then housed in the starting cage for 6 hours, after which a measurement was performed.
(§2) After restraint, each mouse was anesthetized with diethyl ether, and blood was drawn into an EDTA-containing tube. Plasma was separated by centrifugation at 4° C. and 10000×g for 10 minutes, and stored at −80° C. IL-18 and IL-6 were analyzed by ELISA using Quantikine™ immunoassay kit (R&D Systems) and OptEIA™ (BD-Pharmingen), respectively.
(§3) The anti-ACTH antiserum (50 μl, 1:1), dexamethasone (1 ng/50 μl PBS(−)) or the anti-IL-18 antibody (50 μl, 1:1) was administered intraperitoneally to each mouse; after 10 minutes elapsed, the animal was kept in a restraint tube for 6 hours. Synthetic ACTH (250 μg/50 μl PBS(−)) was injected to the left leg; after 6 hours elapsed, the mice were subjected to the experiment.
(§4) Each mouse was kept in a restrainer for 1 hour, and Ac-YVAD-CHO (200 μM/50 μl PBS(−)), Z-FA-fmk (100 μM/50 μl PBS(−)) and SB-203580 (100 μg/50 μl PBS(−) per mouse) were administered intraperitoneally. 1 and 3 hours after the start of restraint, SOD-1 (20 U) and DPI (30 μg) were administered intraperitoneally to the mouse, and samples were analyzed by Western blotting.

In experiment [2] the test system is IL-18 precursor. Description: IL-18 (precursor) level in the adrenal of restraint stress mice. Format: in vivo, mouse. The conditions noted are these: given i.p. during restraint. Here is the method:
as §1, §3, §4
Western blot analysis of IL-18 and phosphorylated P38MAP kinase in adrenal tissue was performed as described below. […] Procaspase-11 and activated P38 MAP kinase were quantified using a Science Lab 99 image analysis system (manufactured by Fujifilm).

For experiment [3], the system named is IL-6. Description: Plasma IL-6 level in stress-loaded wild type mice (ELISA). Format: in vivo, mouse. The conditions noted are these: stress-loaded WT mice; FIG. 5B. As to the method:
as §1, §2
Using IL-18-deficient mice, the relationship between IL-6, which is another stress-related cytokine, and IL-18, was examined. Without stress, IL-6 was undetectable in WT and IL-18 KO, but after 3 hours of stress loading, the IL-6 level was 230 pg/ml in WT and 25 pg/ml in IL-18 KO (FIG. 5A). After liberation from the stress, plasma IL-6 was kept at about 80 pg/ml in WT, but decreased to 5 pg/ml in IL-18 KO (FIG. 5A). Treatment with YVAD-CHO, SOD and anti-IL-18 antibody 70% inhibited the stress-induced increase in plasma IL-6 level in WT (FIG. 5B).
(In general: An ELISA detects its analyte on a solid surface through an enzyme-linked reagent.)

Experiment [4] concerns the target T1, caspase-1 (Mus musculus, UniProt P29452).
T1 construct: from tissue; host or cells: mouse adrenal (homogenate)
T1 sequence (P29452 119-296 limits assumed): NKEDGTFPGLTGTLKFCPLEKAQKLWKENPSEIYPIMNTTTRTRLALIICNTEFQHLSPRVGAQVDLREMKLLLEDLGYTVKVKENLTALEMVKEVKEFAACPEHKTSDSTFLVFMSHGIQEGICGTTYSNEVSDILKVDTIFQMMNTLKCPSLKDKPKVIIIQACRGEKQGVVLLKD
T1 sequence (P29452 315-402 limits assumed): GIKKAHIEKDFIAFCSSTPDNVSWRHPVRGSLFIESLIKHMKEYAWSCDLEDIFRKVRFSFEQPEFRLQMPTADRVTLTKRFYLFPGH
Description: Caspase-1 activity in the adrenal of restraint stress mice (Ac-YVAD-MCA fluorescent substrate). The experiment is classed as in vivo. The following applies: given i.p. during restraint. Here is the method: as §4
Caspase-1 activity in the adrenal was measured using a caspase assay kit (manufactured by BD-Pharmingen). Describing briefly, a homogenate of adrenal tissue was incubated with Ac-YVAD-MCA (acetyl-L-tyrosyl-L-valyl-L-alanyl-L-aspartic acid 4-methyl-coumaryl-7-amide), which is a fluorescent substrate for caspase-1, and the MCA leaving from the aforementioned substrate was measured using a fluorescence plate reader (excitation wavelength 380 nm, irradiation wavelength 420-460 nm).

In experiment [5] the test system is phosphorylated (Thr180/Tyr182) P38 MAP kinase. As to the kind of experiment: Phosphorylated P38MAP kinase in the adrenal of restraint stress mice (Western blotting). The following applies: Western blotting, FIG. 3D. Format: in vivo, mouse. Here is the method:
as §4
Western blot analysis of IL-18 and phosphorylated P38MAP kinase in adrenal tissue was performed as described below. The adrenal tissue was homogenized in an immunoprecipitation (IP) buffer solution (50 mM Tris pH 7.4, 150 mM NaCl, 0.5% NP-40 and 0.5% sodium deoxycholate) containing a protease inhibitor mixture (manufactured by Roche Diagnostics) using a Polytron homogenizer. The homogenate obtained (100 μg protein) was pre-clarified using protein A/G agarose (Exalpha Biologicals, Inc.), incubated with the anti-mouse IL-18 monoclonal antibody or the anti-phosphorylated (Thr180/Tyr182) P38 MAP kinase antibody and protein A/G agarose (50 μl), and centrifuged (at 13000×g for 25 minutes, 4° C.). The precipitate was boiled, and the adrenal protein was recovered, electrophoresed in 10-20% SDS-polyacrylamide gradient gel, and electrically transferred to a Hybond ECL (manufactured by Amersham) nitrocellulose membrane. The aforementioned membrane was incubated with an antibody (IL-18, phosphorylated (Thr180/Tyr182) P38 MAP kinase, caspase-1 or caspase-11), and the reacted protein was detected using an ECL plus system (manufactured by Amersham biosciences). Procaspase-11 and activated P38 MAP kinase were quantified using a Science Lab 99 image analysis system (manufactured by Fujifilm).

Experiment [6] concerns phosphorylated P38MAP kinase. Description: Immunohistochemistry of phosphorylated P38MAP kinase in adrenal cortex of stress-loaded mice. Format: in vivo, mouse. The conditions noted are these: FIG. 3F. Here is the method: The adrenal was fixed in formalin, embedded in paraffin, and cut into 4-μm sections. The aforementioned tissue sections were incubated with an antibody (P38 MAP kinase, caspase-11, caspase-1 (these three were diluted 200 fold) or IL-18 (diluted 400 fold)). Using a horseradish peroxidase-conjugated secondary antibody (manufactured by Santa Cruz) and diaminobenzidin (DBA), color development was performed. For control, sections without the primary antibody and sections derived from a mouse without stress were used.

For the molecule `CC(=O)N[C@@H](Cc1ccc(O)cc1)C(=O)N[C@H](C(=O)N[C@@H](C)C(=O)N[C@H](C=O)CC(=O)O)C(C)C` [YVAD-CHO, Ac-YVAD-CHO], the “stress-induced increase in plasma IL-18 level” value in experiment [1] was “effectively inhibited”. Besides, the “IL-18 precursor protein level in the adrenal” value in experiment [2] is “did not inhibit”. For the same molecule, the “inhibition of the stress-induced increase in plasma IL-6 level” value in experiment [3] worked out at 70%. The “stress-induced increase in caspase-1 activity in the adrenal” value in experiment [4] is recorded as “suppressed”. Further, the “phosphorylation of P38MAP kinase in the adrenal” value in experiment [5] is listed as “Neither YVAD-CHO nor Z-FA-fmk influenced”. For the same molecule, in experiment [6], the “accumulation of phosphorylated P38MAP kinase in adrenal cortex” value was “did not influence”.
As for `CC(NC(=O)[C@H](Cc1ccccc1)NC(=O)OCc1ccccc1)C(=O)CF` (some centres unmarked) [Z-FA-fmk], the “stress-induced increase in plasma IL-18 level” value in experiment [1] is recorded as “suppressed”. For the same molecule, the “stress-induced increase in caspase-1 activity in the adrenal” value in experiment [4] is recorded as “suppressed”. Besides, in experiment [5], the “phosphorylation of P38MAP kinase in the adrenal” value is listed as “Neither YVAD-CHO nor Z-FA-fmk influenced”. Moreover, the “accumulation of phosphorylated P38MAP kinase in adrenal cortex” value in experiment [6] is “did not influence”.
In the case of `c1ccc2c(c1)[I+]c1ccccc1-2` [DPI, Diphenyleneiodonium chloride], in experiment [1], the “stress-induced increase in plasma IL-18 level” value was “suppressed”.
